Where “and” joins values, the source holds several entries; their conditions need not be identical. Equal entries are not always repeated.
System: patients with moderate to severe MGD
Test: Clinical trial (Example 8): topical Spironolactone (3 mg/ml) in MGD, retrospective pre-post
Settings: for improvement in self-reported global assessment scores / mean improvement in obstruction score / mean improvement in turbidity score / mean improvement in vascularity score / mean improvement in zone A score: positive = score decrease; for Anterior Blepharitis, mean change / Obstruction, mean change / Turbidity, mean change / Vascularity, mean change / Zone A, mean change / Anterior Blepharitis, Mean / Obstruction, Mean / Turbidity, Mean / Vascularity, Mean / Zone A, Mean: scale 0-4; for Subjective Global Assessment, mean change / Global Evaluation, Mean / Global Evaluation, mean change / Subjective Global Assessment, Mean: scale 0-10
[1] = baseline vs follow up 1, low Schirmer's, n=27
[2] = baseline vs follow up 1, low Schirmer's, n=27, scale 0-3
[3] = baseline vs follow up 1, normal Schirmer's, n=75
[4] = final follow-up, patients with >1 follow-ups, low Schirmer's, n=10
[5] = final follow-up, patients with >1 follow-ups, low Schirmer's, n=10, scale 0-3
[6] = final follow-up, patients with >1 follow-ups, normal Schirmer's, n=28
[7] = final follow-up, patients with >1 follow-ups, normal Schirmer's, n=28, scale 0-3
[8] = follow-up 1, low Schirmer's, n=27 (FIG. 10)
[9] = follow-up 1, normal Schirmer's, n=75 (FIG. 9)
[10] = follow-up 1, patients with >1 follow-ups, low Schirmer's, n=10
[11] = follow-up 1, patients with >1 follow-ups, low Schirmer's, n=10, scale 0-3
[12] = follow-up 1, patients with >1 follow-ups, normal Schirmer's, n=28
[13] = follow-up 1, patients with >1 follow-ups, normal Schirmer's, n=28, scale 0-3
[14] = follow-up 1 vs final follow-up, low Schirmer's, n=10
[15] = follow-up 1 vs final follow-up, low Schirmer's, n=10, scale 0-3
[16] = follow-up 1 vs final follow-up, normal Schirmer's, n=28
[17] = follow-up 1 vs final follow-up, normal Schirmer's, n=28, scale 0-3
[18] = post-treatment follow-up 1, low Schirmer's, n=27
[19] = post-treatment follow-up 1, low Schirmer's, n=27, scale 0-3
[20] = post-treatment follow-up 1, normal Schirmer's, n=75
[21] = post-treatment follow-up 1, normal Schirmer's, n=75, scale 0-3

CC(=O)SC1CC2=CC(=O)CCC2(C)C2CCC3(C)C(CCC34CCC(=O)O4)C12 (stereo not drawn) [spironolactone, 7α-acetylthio-3-oxo-17α-pregn-4-ene-21,17-carbolactone]
Schirmer's OD, mean change [1]: 2.61±7.03 mm and 2.611 mm | Schirmer's OS, mean change [1]: 2.33±4.74 mm and 2.327 mm | Vision OS, mean change [1]: −0.0198±0.078 log Mar units and −0.0198 log Mar units | improvement in self-reported global assessment scores [1]: 0.98±2.18 | mean improvement in obstruction score [1]: 0.39±1.48 | mean improvement in turbidity score [1]: 0.69±0.76 | mean improvement in vascularity score [1]: 0.33±0.55 | mean improvement in zone A score [1]: 0.63±1.21 | Keratitis OS Corneal, mean change [2]: 0±0.4 and 0 | Keratitis OS Nasal, mean change [2]: 0.15±0.70 and 0.1538 | Keratitis OS Temporal, mean change [2]: 0.038±0.56 and 0.03846 | Anterior Blepharitis, mean change [1]: 0.0±0.64 and 0 | Obstruction, mean change [1]: −0.3889 | Turbidity, mean change [1]: −0.6852 | Vascularity, mean change [1]: −0.3333 | Zone A, mean change [1]: −0.6296 | Subjective Global Assessment, mean change [1]: −0.9815 | Schirmer's OD, mean change [3]: 0.11±8.07 mm and 0.1096 mm | Schirmer's OS, mean change [3]: 0.92±9.43 mm and 0.9178 mm | improvement in self-reported global assessment scores [3]: 1.29±1.80 | mean improvement in obstruction score [3]: 0.36±0.90 | mean improvement in turbidity score [3]: 0.93±0.73 | mean improvement in vascularity score [3]: 0.31±0.713 | mean improvement in zone A score [3]: 0.53±0.83 | Keratitis OS Corneal, mean change (baseline vs follow up 1, normal Schirmer's, n=75, scale 0-3): 0±0.32 and 0 | Anterior Blepharitis, mean change [3]: 0.04±0.70 and 0.04 | Obstruction, mean change [3]: −0.3633 | Turbidity, mean change [3]: −0.9267 | Vascularity, mean change [3]: −0.31 | Zone A, mean change [3]: −0.5533 | Subjective Global Assessment, mean change [3]: −1.287 | Schirmer's OD, Mean [4]: 11.7±10.94 and 11.7 | Schirmer's OS, Mean [4]: 8.78±9.98 and 8.778 | Vision OD, Mean [4]: 0.13±0.15 log Mar units and 0.1264 log Mar units | Vision OS, Mean [4]: 0.11±0.11 log Mar units and 0.1059 log Mar units | Keratitis OD Corneal, Mean [5]: 0.0±0.0 and 0 | Keratitis OD Nasal, Mean [5]: 0.75±0.63 and 0.75 | Keratitis OD Temporal, Mean [5]: 0.7±0.71 and 0.7 | Keratitis OS Corneal, Mean [5]: 0.33±0.5 and 0.3333 | Keratitis OS Nasal, Mean [5]: 1.06±0.92 and 1.056 | Keratitis OS Temporal, Mean [5]: 0.83±0.79 and 0.8333 | Anterior Blepharitis, Mean [4]: 0.2±0.42 and 0.2 | Obstruction, Mean [4]: 0.75±0.42 and 0.75 | Turbidity, Mean [4]: 2.1±0.74 and 2.1 | Vascularity, Mean [4]: 1.4±0.77 and 1.4 | Zone A, Mean [4]: 2.8±0.79 and 2.8 | Global Evaluation, Mean [4]: 4.4±2.62 and 4.4 | Schirmer's OD, Mean [6]: 18.52±9.83 and 18.52 | Schirmer's OS, Mean [6]: 17.04±8.48 and 17.04 | Vision OD, Mean [6]: 0.05±0.18 log Mar units and 0.04593 log Mar units | Vision OS, Mean [6]: 0.05±0.12 log Mar units and 0.04933 log Mar units | Keratitis OD Corneal, Mean [7]: 0.0±0.0 and 0 | Keratitis OD Nasal, Mean [7]: 0.63±0.63 and 0.625 | Keratitis OD Temporal, Mean [7]: 0.55±0.60 and 0.5536 | Keratitis OS Corneal, Mean [7]: 0.16±0.49 and 0.1607 | Keratitis OS Nasal, Mean [7]: 0.75±0.57 and 0.75 | Keratitis OS Temporal, Mean [7]: 0.70±0.57 and 0.6964 | Anterior Blepharitis, Mean [6]: 0.32±0.78 and 0.3214 | Obstruction, Mean [6]: 1.05±0.71 and 1.054 | Turbidity, Mean [6]: 1.80±0.83 and 1.804 | Vascularity, Mean [6]: 1.13±0.91 and 1.125 | Zone A, Mean [6]: 2.71±0.80 and 2.714 | Global Evaluation, Mean [6]: 3.55±1.30 and 3.554 | increase in Schirmer's I scores (follow-up 1, low Schirmer's, n=27): approximately 40% | percent reduction in Global Evaluation score from baseline [8]: 22.98% | percent reduction in Turbidity score from baseline [8]: 30.70% | percent reduction in Vascularity score from baseline [8]: 30.48% | percent reduction in Zone A score from baseline [8]: 22.65% | percent reduction in Global Evaluation score from baseline [9]: 27.52% | percent reduction in Obstruction score from baseline [9]: 31.23% | percent reduction in Turbidity score from baseline [9]: 41.82% | percent reduction in Vascularity score from baseline [9]: 24.51% | percent reduction in Zone A score from baseline [9]: 19.86% | Schirmer's OD, Mean [10]: 8.8±6.7 and 8.8 | Schirmer's OS, Mean [10]: 7.22±5.19 and 7.222 | Vision OD, Mean [10]: 0.07±0.10 log Mar units and 0.06633 log Mar units | Vision OS, Mean [10]: 0.09±0.14 log Mar units and 0.08737 log Mar units | Keratitis OD Corneal, Mean [11]: 0.0±0.0 and 0 | Keratitis OD Nasal, Mean [11]: 0.60±0.66 and 0.6 | Keratitis OD Temporal, Mean [11]: 0.65±0.71 and 0.65 | Keratitis OS Corneal, Mean [11]: 0.22±0.44 and 0.2222 | Keratitis OS Nasal, Mean [11]: 1.28±0.57 and 1.278 | Keratitis OS Temporal, Mean [11]: 1.0±0.66 and 1 | Anterior Blepharitis, Mean [10]: 0.3±0.67 and 0.3 | Obstruction, Mean [10]: 1.35±1.06 and 1.35 | Turbidity, Mean [10]: 1.95±0.76 and 1.95 | Vascularity, Mean [10]: 1.1±0.88 and 1.1 | Zone A, Mean [10]: 2.55±0.98 and 2.55 | Global Evaluation, Mean [10]: 4.15±2.07 and 4.15 | Schirmer's OD, Mean [12]: 17.07±10.10 and 17.07 | Schirmer's OS, Mean [12]: 17.50±10.42 and 17.5 | Vision OD, Mean [12]: 0.07±0.20 log Mar units and 0.07437 log Mar units | Vision OS, Mean [12]: 0.09±0.15 log Mar units and 0.08826 log Mar units | Keratitis OD Corneal, Mean [13]: 0.0±0.0 and 0 | Keratitis OD Nasal, Mean [13]: 0.64±0.72 and 0.6429 | Keratitis OD Temporal, Mean [13]: 0.54±0.68 and 0.5357 | Keratitis OS Corneal, Mean [13]: 0.14±0.52 and 0.1429 | Keratitis OS Nasal, Mean [13]: 0.82±0.80 and 0.8214 | Keratitis OS Temporal, Mean [13]: 0.71±0.80 and 0.7143 | Anterior Blepharitis, Mean [12]: 0.29±0.50 and 0.2857 | Obstruction, Mean [12]: 1.12±0.83 and 1.116 | Turbidity, Mean [12]: 1.96±0.62 and 1.964 | Vascularity, Mean [12]: 1.42±0.84 and 1.42 | Zone A, Mean [12]: 2.59±0.82 and 2.589 | Global Evaluation, Mean [12]: 4.32±1.53 and 4.321 | Schirmer's OD, mean change [14]: 2.9±4.93 and 2.9 | Schirmer's OS, mean change [14]: 1.56±6.25 and 1.556 | Vision OD, mean change [14]: 0.06±0.10 log units and 0.06011 log units | Vision OS, mean change [14]: 0.02±0.07 log units and 0.0185 log units | mean improvement in obstruction score [14]: 0.6±1.13 | Keratitis OD Corneal, mean change [15]: 0 | Keratitis OD Nasal, mean change [15]: 0.15 | Keratitis OD Temporal, mean change [15]: 0.05 | Keratitis OS Corneal, mean change [15]: 0.1111 | Keratitis OS Nasal, mean change [15]: −0.2222 | Keratitis OS Temporal, mean change [15]: −0.1667 | Anterior Blepharitis, mean change [14]: −0.1±0.57 and −0.1 | Obstruction, mean change [14]: −0.6 | Turbidity, mean change [14]: 0.15±0.82 and 0.15 | Vascularity, mean change [14]: 0.3±0.63 and 0.3 | Zone A, mean change [14]: 0.25±0.75 and 0.25 | Global Evaluation, mean change [14]: 0.25±2.55 and 0.25 | Schirmer's OD, mean change [16]: 1.77±9.01 and 1.778 | improvement in self-reported global assessment scores [16]: 0.77±1.36 | mean improvement in obstruction score [16]: 0.06±0.87 | mean improvement in turbidity score [16]: 0.16±1.00 | mean improvement in vascularity score [16]: 0.29±0.79 | Keratitis OD Corneal, mean change [17]: 0.0±0.0 and 0 | Keratitis OD Temporal, mean change [17]: 0.017±0.57 and 0.01786 | Keratitis OS Corneal, mean change [17]: 0.018±0.21 and 0.01786 | Anterior Blepharitis, mean change [16]: 0.04±0.64 and 0.03571 | Obstruction, mean change [16]: −0.0625 | Turbidity, mean change [16]: −0.1607 | Vascularity, mean change [16]: −0.2946 | Zone A, mean change [16]: 0.13±0.69 and 0.125 | Global Evaluation, mean change [16]: −0.7679 | time to improved symptoms of ocular irritation (moderate to severe symptomatic MGD, 'as early as'): 2 weeks | side effects after topical administration (patients of the clinical trial): A small percentage of the patients reported a mild temporary burning sensation in the eye | Subjective Global Assessment, Mean (post-treatment follow-up 1, low Schirmer's (5 or less), n=27): 3.78±1.68 and 3.778 | Schirmer's OD, Mean [18]: 7.52±7.42 mm and 7.519 mm | Schirmer's OS, Mean [18]: 6.92±5.34 mm and 6.923 mm | Vision OD, Mean [18]: 0.05±0.12 log Mar units and 0.04681 log Mar units | Vision OS, Mean [18]: 0.13±0.30 log Mar units and 0.1307 log Mar units | Keratitis OD Corneal, Mean [19]: 0.07±0.38 and 0.07407 | Keratitis OD Nasal, Mean [19]: 0.93±0.84 and 0.9259 | Keratitis OD Temporal, Mean [19]: 0.74±0.91 and 0.7407 | Keratitis OS Corneal, Mean [19]: 0.15±0.37 and 0.1538 | Keratitis OS Nasal, Mean [19]: 1.19±0.87 and 1.192 | Keratitis OS Temporal, Mean [19]: 0.96±0.82 and 0.9615 | Anterior Blepharitis, Mean [18]: 0.41±0.71 and 0.4074 | Obstruction, Mean [18]: 1.13±1.05 and 1.13 | Turbidity, Mean [18]: 1.89±0.91 and 1.889 | Vascularity, Mean [18]: 0.93±0.829 and 0.9259 | Zone A, Mean [18]: 2.46±1.13 and 2.463 | Subjective Global Assessment, Mean (post-treatment follow-up 1, normal Schirmer's (>5), n=75): 4.03±1.57 and 4.033 | Schirmer's OD, Mean [20]: 16.47±9.75 mm and 16.47 mm | Schirmer's OS, Mean [20]: 16.95±9.61 mm and 16.95 mm | Vision OD, Mean [20]: 0.08±0.18 log Mar units and 0.07686 log Mar units | Vision OS, Mean [20]: 0.11±0.22 log Mar units and 0.1115 log Mar units | Keratitis OD Corneal, Mean [21]: 0.007±0.06 and 0.006757 | Keratitis OD Nasal, Mean [21]: 0.64±0.68 and 0.6419 | Keratitis OD Temporal, Mean [21]: 0.45±0.64 and 0.4527 | Keratitis OS Corneal, Mean [21]: 0.07±0.34 and 0.06757 | Keratitis OS Nasal, Mean [21]: 0.72±0.73 and 0.723 | Keratitis OS Temporal, Mean [21]: 0.57±0.69 and 0.5743 | Anterior Blepharitis, Mean [20]: 0.39±0.67 and 0.3867 | Obstruction, Mean [20]: 0.98±0.69 and 0.9833 | Turbidity, Mean [20]: 1.75±0.75 and 1.753 | Vascularity, Mean [20]: 1.11±0.829 and 1.11 | Zone A, Mean [20]: 2.51±0.88 and 2.513
